Measured values from ChEMBL document CHEMBL5532720, “A Potent Solution for Tumor Growth and Angiogenesis Suppression via an ELR+CXCL-CXCR1/2 Pathway Inhibitor” (ACS Med Chem Lett, 2024).
The source made the active and inactive calls. No cut-off for these calls is given here.

Legend:
[1] = test system: CAL-27; experiment: Antiproliferative activity against human CAL-27 cells incubated for 48 hrs by XTT assay; type: functional, cell-based; conditions: CAL-27, 48 h
[2] = test system: A498; experiment: Downregulation of CXCL1 mRNA expression in human A498 cells at 1 to 2.5 uM incubated for 48 hrs by qPCR analysis; type: functional, cell-based; conditions: dose 1-2.5 µM
[3] = biological target: Glycogen synthase kinase-3 beta (Homo sapiens) (UniProt P49841); experiment: Inhibition of GSK3B (unknown origin) at 10 uM in presence of ATP at Km concentration
Sequence of Glycogen synthase kinase-3 beta (Homo sapiens) (P49841 whole entry, looked up): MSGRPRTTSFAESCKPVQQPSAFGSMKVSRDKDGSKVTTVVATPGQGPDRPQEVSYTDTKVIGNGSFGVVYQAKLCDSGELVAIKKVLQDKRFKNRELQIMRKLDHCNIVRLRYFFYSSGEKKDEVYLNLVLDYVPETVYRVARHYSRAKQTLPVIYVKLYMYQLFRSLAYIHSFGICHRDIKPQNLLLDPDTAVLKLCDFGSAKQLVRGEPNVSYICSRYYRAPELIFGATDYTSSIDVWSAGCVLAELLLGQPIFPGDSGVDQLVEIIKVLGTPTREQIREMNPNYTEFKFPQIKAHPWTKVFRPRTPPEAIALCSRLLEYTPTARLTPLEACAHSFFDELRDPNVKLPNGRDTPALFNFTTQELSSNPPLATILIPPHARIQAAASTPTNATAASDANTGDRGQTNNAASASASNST

[4] = biological target: Mitogen-activated protein kinase kinase kinase kinase 5 (Homo sapiens) (UniProt Q9Y4K4); experiment: Inhibition of MAP4K5 (unknown origin) at 10 uM in presence of ATP at Km concentration
Sequence of Mitogen-activated protein kinase kinase kinase kinase 5 (Homo sapiens) (Q9Y4K4 whole entry, looked up): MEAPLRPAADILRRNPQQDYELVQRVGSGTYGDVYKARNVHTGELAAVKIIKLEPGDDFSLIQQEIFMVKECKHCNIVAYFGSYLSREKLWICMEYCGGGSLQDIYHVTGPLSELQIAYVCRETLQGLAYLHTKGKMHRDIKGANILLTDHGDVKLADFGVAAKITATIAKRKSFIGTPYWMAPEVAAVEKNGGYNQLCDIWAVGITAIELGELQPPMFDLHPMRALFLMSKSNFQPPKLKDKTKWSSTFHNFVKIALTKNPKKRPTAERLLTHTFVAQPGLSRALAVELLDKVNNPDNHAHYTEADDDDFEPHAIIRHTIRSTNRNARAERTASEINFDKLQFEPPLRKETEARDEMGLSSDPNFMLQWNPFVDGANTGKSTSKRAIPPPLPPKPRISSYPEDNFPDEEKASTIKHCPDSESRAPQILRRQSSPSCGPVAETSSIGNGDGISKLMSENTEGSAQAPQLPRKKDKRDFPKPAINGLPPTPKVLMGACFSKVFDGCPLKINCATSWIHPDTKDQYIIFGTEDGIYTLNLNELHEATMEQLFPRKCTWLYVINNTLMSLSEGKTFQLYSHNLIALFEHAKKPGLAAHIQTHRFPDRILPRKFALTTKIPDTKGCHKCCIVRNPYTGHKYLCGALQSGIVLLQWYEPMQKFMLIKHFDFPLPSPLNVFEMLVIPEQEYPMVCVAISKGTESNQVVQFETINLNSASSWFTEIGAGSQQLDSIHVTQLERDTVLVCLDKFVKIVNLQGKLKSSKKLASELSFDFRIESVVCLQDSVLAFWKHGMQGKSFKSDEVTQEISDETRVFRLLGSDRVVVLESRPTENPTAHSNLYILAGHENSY

[5] = biological target: Phosphatidylinositol 4-phosphate 5-kinase type-1 gamma (Homo sapiens) (UniProt O60331); experiment: Inhibition of PIP5K1C (unknown origin) at 10 uM in presence of ATP at Km concentration
Sequence of Phosphatidylinositol 4-phosphate 5-kinase type-1 gamma (Homo sapiens) (O60331 whole entry): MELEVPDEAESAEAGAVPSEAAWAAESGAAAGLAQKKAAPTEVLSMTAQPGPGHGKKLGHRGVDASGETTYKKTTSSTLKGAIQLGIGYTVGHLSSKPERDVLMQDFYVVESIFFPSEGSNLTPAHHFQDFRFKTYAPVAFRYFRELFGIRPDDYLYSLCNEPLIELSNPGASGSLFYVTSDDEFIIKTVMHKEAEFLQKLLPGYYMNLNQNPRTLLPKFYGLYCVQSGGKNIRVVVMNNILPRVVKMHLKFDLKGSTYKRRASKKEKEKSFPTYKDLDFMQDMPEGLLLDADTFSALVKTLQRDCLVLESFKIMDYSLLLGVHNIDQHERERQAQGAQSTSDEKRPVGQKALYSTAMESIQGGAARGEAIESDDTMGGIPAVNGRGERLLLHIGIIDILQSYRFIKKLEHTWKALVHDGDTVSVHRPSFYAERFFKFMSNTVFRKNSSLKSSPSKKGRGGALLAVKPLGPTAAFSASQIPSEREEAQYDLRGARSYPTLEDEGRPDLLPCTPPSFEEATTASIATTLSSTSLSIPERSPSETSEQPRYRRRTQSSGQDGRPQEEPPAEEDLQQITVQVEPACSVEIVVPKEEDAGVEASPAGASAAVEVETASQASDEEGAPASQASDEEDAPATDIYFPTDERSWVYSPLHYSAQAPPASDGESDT

[6] = biological target: Focal adhesion kinase 1 (Homo sapiens) (UniProt Q05397); experiment: Inhibition of PTK2 (unknown origin) at 10 uM in presence of ATP at Km concentration
Sequence of Focal adhesion kinase 1 (Homo sapiens) (Q05397 2-1052 limits assumed): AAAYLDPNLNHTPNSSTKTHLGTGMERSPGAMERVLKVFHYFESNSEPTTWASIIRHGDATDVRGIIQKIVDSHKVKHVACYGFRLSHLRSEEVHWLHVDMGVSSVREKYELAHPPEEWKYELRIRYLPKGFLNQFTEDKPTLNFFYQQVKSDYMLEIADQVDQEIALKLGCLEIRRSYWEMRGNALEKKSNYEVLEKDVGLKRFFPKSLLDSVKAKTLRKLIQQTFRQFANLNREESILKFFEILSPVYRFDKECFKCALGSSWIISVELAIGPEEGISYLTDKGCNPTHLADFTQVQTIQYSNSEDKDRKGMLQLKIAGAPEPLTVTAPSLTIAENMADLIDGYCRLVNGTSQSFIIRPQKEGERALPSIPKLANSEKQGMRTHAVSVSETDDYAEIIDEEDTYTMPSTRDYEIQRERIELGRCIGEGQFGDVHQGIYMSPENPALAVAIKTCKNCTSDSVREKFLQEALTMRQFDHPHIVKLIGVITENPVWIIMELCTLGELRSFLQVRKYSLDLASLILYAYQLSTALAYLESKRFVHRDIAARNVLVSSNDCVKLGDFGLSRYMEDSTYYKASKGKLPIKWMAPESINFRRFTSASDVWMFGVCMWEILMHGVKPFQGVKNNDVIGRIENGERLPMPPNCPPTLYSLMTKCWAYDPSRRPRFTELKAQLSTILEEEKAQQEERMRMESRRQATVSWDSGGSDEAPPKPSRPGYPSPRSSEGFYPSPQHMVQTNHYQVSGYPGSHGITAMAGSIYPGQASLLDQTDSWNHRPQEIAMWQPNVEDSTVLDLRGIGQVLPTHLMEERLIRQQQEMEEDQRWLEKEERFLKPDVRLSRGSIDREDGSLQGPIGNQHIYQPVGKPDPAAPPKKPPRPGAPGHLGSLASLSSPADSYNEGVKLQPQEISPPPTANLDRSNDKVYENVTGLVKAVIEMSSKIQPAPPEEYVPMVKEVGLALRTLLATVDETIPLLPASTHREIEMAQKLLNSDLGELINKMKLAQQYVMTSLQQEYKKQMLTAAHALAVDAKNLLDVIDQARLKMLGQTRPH

[7] = Stability in mouse microsomes assessed as intrinsic clearance; type: ADME, Microsome
[8] = Cmax in NOD SCID mouse at 100 mg/kg, po; type: ADME, organism-based; conditions: in vivo
[9] = Oral bioavailability in NOD SCID mouse at 200 mg/kg; type: ADME, organism-based; conditions: in vivo

O=C(Nc1cc(Cl)cc(Cl)c1)Nc1nc2ccc([N+](=O)[O-])cc2s1
IC50 [1]: 2500 nM
Activity [2]: Active
inhibition [3]: inactive
inhibition [4]: inactive
inhibition [5]: inactive
inhibition [6]: inactive
microsomal CLint [7]: < 116 µL/min/mg
Cmax [8]: 2800 nM
bioavailability [9]: 22%
